Source: patent US10413583B2, “Synthetic substrates for enzymes that catalyze reactions of modified cysteines and related methods” (The University of Chicago, priority 2016, dated 2019)

Columns and labels:
HEK293T cells = assay: Fluorescence imaging of RDP-1 and RDP-2 with HEK293T cells; type: cell-based, human; details: 1 μM probe for 10 min
Procedure: HEK293T were plated with […] of DMEM (Gibco, Gaithersburg, Md., United States of America; High Glucose, Glutamax, 10% FBS) a four well chambered imaging dish (D35C4-20-1.5-N, Cellvis, Mountain View, Calif., United States of America) which were precoated with 4 μg Poly-D-lysine (30-70 kilodalton (KDa), Alfa Aesar, Haverhill, Mass., United States of America) for 2 h at room temperature or overnight at 4° C. and grown to ca. 80% confluence prior to imaging. 30 min before the addition of the RDP, the cell culture media was removed and cells were washed with 500 μL of serum-free DMEM (Gibco, Gaithersburg, Md., United States of America, High Glucose, Glutamax, no FBS). The media was then replaced with 500 μL of serum-free DMEM containing 100 nM Mitotracker Deep Red (Thermo Fisher Scientific, Waltham, Mass., United States of America; to assist in focusing and processing) and either 0.1% DMSO carrier as a control or Palm B, ML348, or ML349 in DMSO and incubated for 30 min at 37° C. and 5% CO2. The media was removed, the cells were washed with 500 μL of Live Cell Imaging Solution (Thermo Fisher Scientific, Waltham, Mass., United States of America), and 500 μL of 1 μM RDP-1 or RDP-2 along with the appropriate inhibitor or DMSO as control in Live Cell Imaging Solution was added to each well. After incubation for 10 min at 37° C. and 5% CO2, the cells were washed with 500 μL Live Cell Imaging Solution and 500 μL of Live Cell Imaging Solution containing DMSO or the appropriate inhibitor was added to the cells immediately before images were obtained on an inverted epi-fluorescence microscope (Olympus IX83; Olympus Corporation, Tokyo, Japan) attached with EMCCD camera (Photometrics EVOLVE™ Delta; Photometrics, Tucson, Ariz., United States of America) with 40× oil objective (N/A 1.3) for RDP-1 (excitation filter 1 430/24 nm, dichroic chroma 89007, emission filter 1 470/24 nm, exposure time 100 ms, EM gain 80, excitation filter 2 480/20 nm, dichroic chroma 49014, emission filter 2 575/40 nm, exposure time 70 ms, EM gain 50) or for RDP-2 (excitation filter 1 430/24 nm, dichroic chroma 89007, emission filter 1 470/24 nm, exposure time 70 ms, EM gain 50, excitation filter 2 480/20, dichroic chroma 49014, emission filter 2 575/40 nm, exposure time 50 ms, EM gain 30), brightfield (exposure time 50 ms, EM gain 30), and MitoTracker Deep Red: (excitation filter 640/30 nm, emission filter 705/72 nm, dichroic chroma 89016, exposure time 15 ms, EM gain 15). Analyses were performed in ImageJ as described below. Each experiment was repeated at least three separate times with identical results.
The probe channel data were expressed as a ratio of the blue channel divided by the green channel and normalized to the average fluorescence intensity of the control conditions. To eliminate errors from autofluorescence, the images were thresholded using the bluer channel images at the same minimum level that included the maximum number of cells in focus (as determined visually by the mitocondrial dye) while limiting the signal from areas where cells are not present. The average value of all nonzero pixels from the blue channel:green channel ratio image were calculated in ImageJ for three different measurements from each experiment. The percent deprotected was estimated by imaging RDP-1/2 in buffer (20 mM HEPES, 150 mM NaCl, 0.1% Triton X-100, pH 7.4, 0.1% DMSO) and for dye deprotected with 20 mM DTT in buffer (20 mM HEPES, 150 mM NaCl, 0.1% Triton X-100, pH 7.4, 0.1% DMSO) for 1 h at room temperature before aliquoted into individual tubes and stored at −80° C. A fresh aliquot of the solution was thawed for each experiment and diluted to 250 nM (RDP-1) or 500 nM (RDP-2) in buffer (20 mM HEPES, 150 mM NaCl, 0.1% Triton X-100, pH 7.4, 10 mM DTT) and allowed to equilibrate for 30 m before being imaged. […]

APT1 = target: T1, APT1 (Homo sapiens, UniProt O75608); assay: In vitro kinetic assays of RDP-1 and RDP-2 with APT1; type: biochemical; details: 1 μM probe, 200 nM enzyme, 20 min
T1 construct: His-tag; made in house; host or cells: E. coli ROSETTA DE3
T1 sequence (O75608 whole entry): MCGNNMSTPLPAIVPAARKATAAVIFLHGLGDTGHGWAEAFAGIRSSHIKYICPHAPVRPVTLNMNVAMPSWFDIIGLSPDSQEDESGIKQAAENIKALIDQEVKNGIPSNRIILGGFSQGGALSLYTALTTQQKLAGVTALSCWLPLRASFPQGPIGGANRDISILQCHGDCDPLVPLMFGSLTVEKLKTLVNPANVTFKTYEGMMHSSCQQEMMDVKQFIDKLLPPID
Procedure: (§1) 100 μL of 400 nM of APT1 or APT2, or buffer without added enzymes, were added to buffer (20 mM HEPES, 150 mM NaCl, 0.1% Triton X-100, pH 7.4, degassed by bubbling N2 through the solution for 1 h) and prewarmed to 37° C. in a heating block for 5 min. The buffer solutions were then added using a multichannel pipet to a black-walled clear-bottom 96-well plate (Nunc, Roskilde, Denmark) containing 100 μL of 2 μM RDP-1 or RDP-2 in buffer (20 mM HEPES, 150 mM NaCl, 0.1% Triton X-100, pH 7.4, 0.15% DMSO) that had been pre-warmed in the plate reader at 37° C. for 5 min, resulting in a final concentration of 200 nM APT1 or APT2, 1 μM RDP-1 or RDP-2, and 0.1% DMSO. Fluorescent intensities λex1=430/24 nm, λem1=470/24 nm; λex2=480/20, λem2=575/40; gain=75; No. of flashes=8) were obtained as a ratio of em1/em2 in kinetic mode in 30 s intervals for 30 min.

APT2 = target: T2, APT2 (Homo sapiens, UniProt O95372); assay: In vitro kinetic assays of RDP-1 and RDP-2 with APT2; type: biochemical; details: 1 μM probe, 200 nM enzyme, 20 min
T2 construct: His-tag; made in house; host or cells: E. coli ROSETTA DE3
T2 sequence (O95372 whole entry): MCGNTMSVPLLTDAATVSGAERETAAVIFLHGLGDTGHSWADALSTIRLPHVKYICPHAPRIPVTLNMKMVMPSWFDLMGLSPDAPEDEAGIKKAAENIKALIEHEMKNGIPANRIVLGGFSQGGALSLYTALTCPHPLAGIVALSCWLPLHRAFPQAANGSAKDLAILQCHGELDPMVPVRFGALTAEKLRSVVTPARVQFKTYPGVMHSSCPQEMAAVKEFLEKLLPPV
Procedure: as §1

[1] = Stability of RDP-1 and RDP-2 with biological reductant (GSH); type: physicochemical; details: 1 μM probe, 20 mM GSH, pH 7.4 buffer
Procedure: RDP-1 or RDP-2 were added to buffer (20 mM HEPES, 150 mM NaCl, 0.1% Triton X-100, pH 7.4, degassed by bubbling N2 through the solution for 1 h) prewarmed to 37° C. in a heating block for 5 min containing no reducing agent or GSH using a multichannel pipet to at least three wells of a black-walled clear-bottom 96-well plate (Nunc, Roskilde, Denmark; Final concentration: 1 μM RDP-1/RDP-2, 20 mM GSH, 20 mM HEPES, 150 mM NaCl, 0.1% Triton X-100, pH 7.4, 4.1% DMSO). Fluorescent intensities (λex1=430/25 nm, λeml=470/24 nm; λex2=480/20, λem2=575/40; gain=75; No. of flashes=10) were obtained as a ratio of em1/em2 in kinetic mode in 30 s intervals for 30 min.

[2] = system: catalytically inactive APTs (APT1(S119A), APT2(S122A)); assay: In vitro kinetic assays of RDP-1 and RDP-2 with catalytically inactive enzymes; type: biochemical, human; details: 10 times more APT1(S119A) and APT2(S122A) enzyme

SMILES	depalmitoylation of probe (percent deprotected dye) (HEK293T cells)	ratio change of ratiometric response (APT1)	ratio change of ratiometric response (APT2)	response to 20 mM glutathione [1]	response to catalytically inactive APTs [2]
CCCCCCCC(=O)SC[C@@H](C(=O)NC)N(C)C(=O)/C(C#N)=C/c1c(C)c2cc3c4c(c2oc1=O)CCCN4CCC3 [RDP-1, (2E)-2-cyano-N-methyl-3-{6-methyl-4-oxo-3-oxa-13-azatetracyclo[7.7.1.0^2,7.0^13,17]heptadeca-1,5,7,9(17)-tetraen-5-yl}-N-[(1R)-1-(methylcarbamoyl)-2-(octanoylsulfanyl)ethyl]prop-2-enamide]	about 28%	0.7 to 34	0.7 to 34	Neither RDP-1 nor RDP-2 responds	Neither RDP-1 nor RDP-2 responds
CCCCCCCC(=O)SC[C@@H](C(=O)N[C@@H](CCCCN)C(=O)OC)N(C)C(=O)/C(C#N)=C/c1c(C)c2cc3c4c(c2oc1=O)CCCN4CCC3 [RDP-2, (5S)-5-[(2R)-2-[(2E)-2-cyano-N-methyl-3-{6-methyl-4-oxo-3-oxa-13-azatetracyclo[7.7.1.0^2,7.0^13,17]heptadeca-1,5,7,9(17)-tetraen-5-yl}prop-2-enamido]-3-(octanoylsulfanyl)propanamido]-6-methoxy-6-oxohexan-1-aminium]	~18%	1.9 to 16	1.9 to 16	Neither RDP-1 nor RDP-2 responds	Neither RDP-1 nor RDP-2 responds
